The values that follow come from patent US20090068169A1, “2,4,6-triamino-s-triazine-based compounds which bind to the tail (fc) portion of immunoglobulins and their use” (priority 2004, published 2009).

The target in one experiment is T1, Fc portion of human IgG.
T1 construct: fused on or other part: horseradish peroxidase chemically conjugated to the IgG (detection label)
Briefly: Competitive protein A binding ELISA. To be noted: for IC50: inhibition of binding of protein A to HRP-human IgG, assay in PBS; for binding activity, in words: refers to Table 1, bis-aminoanilino arrangement. As to the method:
The competitive protein A binding ELISA assay was performed on a 96-well plate MAXISORP® surface to enhance the binding of protein A to the bottom of the plate. The wells were coated with 100 μL of protein A (0.8 μg) and incubated overnight at 4° C. After incubation, unbound protein A was removed by three washes with phosphate buffer saline (PBS). The plate was then incubated with 100 μL/well of a 2% solution of bovine serum albumin (BSA) for 1 h at 37° C. to block non specific protein binding. After incubation, the plate was washed three times with PBS. 50 μL of compound or protein A, diluted in PBS or PBS-20% DMSO at appropriate concentration, were added to the wells followed by addition of 50 μL of peroxidase-conjugated human IgG (HRP-IgG). After 1 h incubation at 37° C., the plate was washed three times with PBS to remove unbound HRP-IgG. […] The plate was then read at 405 nm on a EL 800, universal microplate reader (Bio-Tek). Data was analyzed in Microsoft Excel and the concentration of compound which inhibits 50% binding of protein A (IC50) was calculated using Prism software.

The subject of experiment [1] is oxazolone-induced delayed-type hypersensitivity (DTH) in mice. As to the kind of experiment: Oxazolone-induced delayed-type hypersensitivity (DTH). The class given is in vivo. Conditions: intravenous; for Activity (ear thickness inhibition) First Challenge: first oxazolone challenge; for Activity (ear thickness inhibition) First Challenge / Activity (ear thickness inhibition) Second Challenge: n.s. = non significant effect; for inhibition of the inflammation after the second challenge of oxazolone: FIG. 2, second challenge; for Activity (ear thickness inhibition) Second Challenge: second oxazolone challenge. Here is the method: Compounds were tested for their ability to treat oxazolone-induced delayed-type hypersensitivity (DTH) in mice. On day 0, mice were sensitized with 100 μL of oxazolone in 5% acetone. On day 0, 1 and 2, mice were treated by intravenous administration of the vehicle (control) or methotrexate (MTX; positive control) or the compound at 50 mg/kg (compound 3) or 25 mg/kg (compound 1 or 10). Mice were challenged with an application of 50 μL of oxazolone on the surface of the right ear (first challenge, day 3; second challenge, day 10). Ear thickness was measured on day 4 to day 7, and on day 11 to 14. Redness and crust formation was also observed. Mice were sacrificed on day 14. TDTH (CD4) cells play an important role in regulating the intensity of the DTH response. Compounds may exert an inhibitory influence on the DTH response through its inhibition of T-cell activation and DNA, RNA and/or protein synthesis.

Experiment [2] shares this test system. The experiment is described as above. The class given is in vivo. To be noted: per os; for Activity (ear thickness inhibition) First Challenge: first oxazolone challenge; for Activity (ear thickness inhibition) Second Challenge: second oxazolone challenge, n.s. = non significant effect.

Marks after values point to notes of the source that are not given here.

As for `Nc1cccc(Nc2nc(NCCO)nc(Nc3ccc(Cl)cc3)n2)c1` [Compound 44], the IC50 on Fc portion of human IgG worked out at 56 nM. In other words, the double-digit nanomolar range. Molecule `Nc1cccc(Nc2nc(NCCc3ccccc3N)nc(NCC3CC3)n2)c1` [Compound 38] registered an IC50 on Fc portion of human IgG of 312 nM. Still for that read-out and setting: the figure for `COc1ccc(Nc2nc(N)nc(Nc3cccc(N)c3)n2)cc1` [Compound 27] is 292 nM; for `COc1ccc(Nc2nc(NCCN)nc(Nc3cccc(N)c3)n2)cc1` [Compound 15] it is 415 nM; for `NCCCCCCNc1nc(Nc2cccc(N)c2)nc(Nc2cccc(N)c2)n1` [Compound 36] it is 68 nM. Same read-out and setting: the figure for `NCCNc1nc(Nc2cccc(N)c2)nc(Nc2cccc(N)c2)n1` [Compound 21] is 114 nM. As to `COc1cccc(Nc2nc(NCCO)nc(Nc3cccc(N)c3)n2)c1` [Compound 22], the IC50 on Fc portion of human IgG was determined as 63 nM. Same read-out and setting: the value for `COc1cccc(Nc2nc(NCC3CC3)nc(Nc3cccc(N)c3)n2)c1` [Compound 24] was 243 nM. Turning to `Nc1cccc(Nc2nc(NCCO)nc(Nc3ccc(F)cc3)n2)c1` [Compound 28], the “Activity (ear thickness inhibition) First Challenge” value in experiment [1] was “↓ (n.s.)”. The same molecule had an IC50 on Fc portion of human IgG of 62 nM. Consider `Nc1ccc(CCNc2nc(NCc3ccc(N)cc3)nc(Nc3cccc(N)c3)n2)cc1` [Compound 11], for which the IC50 at Fc portion of human IgG was determined as 85 nM. Molecule `Nc1cccc(Nc2nc(NCCO)nc(NCc3cccc(F)c3)n2)c1` [Compound 29] came in with an IC50 at Fc portion of human IgG of 222 nM. On the same count and under the same terms, the figure for `Nc1cccc(CCNc2nc(NCC3CC3)nc(Nc3cccc(N)c3)n2)c1` [Compound 30] is 88 nM. On to `Nc1ccc(CCNc2nc(NCCCCO)nc(Nc3cccc(N)c3)n2)cc1` [Compound 3], for which the “inhibition of the inflammation after the second challenge of oxazolone” value in experiment [1] is on record as “significant inhibition of the inflammation”. In experiment [2], the “oral activity on DTH” value is listed as “oral activity”, the “Activity (ear thickness inhibition) First Challenge” value is reported as “↓ per os (p = 0.03)” and the “Activity (ear thickness inhibition) Second Challenge” value was “↓ (n.s.)”. Further, the IC50 at Fc portion of human IgG stood at 106 nM. Turning to `COc1ccc(Nc2nc(Nc3cccc(N)c3)nc(NC3CC3)n2)cc1` [Compound 26], at Fc portion of human IgG, the IC50 was 126 nM. As to `Nc1ccc(CCNc2nc(NCc3cccc(N)c3)nc(Nc3cccc(N)c3)n2)cc1` [Compound 10], in experiment [1], the “Activity (ear thickness inhibition) Second Challenge” value is given as “No effect”. In addition, in experiment [2], the “oral activity on DTH” value is recorded as “oral activity” and the “Activity (ear thickness inhibition) First Challenge” value is “No effect per os”. The IC50 at Fc portion of human IgG stood at 106 nM. As to `Nc1cccc(Nc2nc(NCCCCCCO)nc(Nc3cccc(N)c3)n2)c1` [Compound 19], in experiment [1], the “Activity (ear thickness inhibition) First Challenge” value is given as “↓ (n.s.)” and the “Activity (ear thickness inhibition) Second Challenge” value was “No effect”. Also, at Fc portion of human IgG, the IC50 was found to be 15 nM. With `Nc1cccc(CNc2nc(Nc3cccc(N)c3)nc(Nc3cccc(N)c3)n2)c1` [Compound 12], at Fc portion of human IgG, the IC50 is 3 nM and the “binding activity, in words” value is “potent binding activity”. As for `Nc1ccc(CNc2nc(N)nc(Nc3cccc(N)c3)n2)cc1` [Compound 17], the half-maximal inhibitory concentration (IC50) on Fc portion of human IgG was 65 nM. This lies in the double-digit nanomolar range. Same read-out and setting: the figure for `Nc1ccc(CCNc2nc(Nc3cccc(N)c3)nc(Nc3cccc(N)c3)n2)cc1` [Compound 20] is 65 nM. With `Nc1ccc(CNc2nc(NCCCCCCO)nc(Nc3cccc(N)c3)n2)cc1` [Compound 2], the “Activity (ear thickness inhibition) Second Challenge” value in experiment [1] is listed as “No effect”. This molecule yielded an IC50 on Fc portion of human IgG of 148 nM.

With `Nc1cccc(Nc2nc(NCCO)nc(NCc3ccc(F)cc3)n2)c1` [Compound 42], on Fc portion of human IgG, the IC50 worked out at 39 nM. Take `COc1cccc(Nc2nc(NCCN)nc(Nc3cccc(N)c3)n2)c1` [Compound 14]: the IC50 on Fc portion of human IgG is 306 nM. Turning to `Nc1cccc(Nc2nc(NCC3CC3)nc(Nc3cccc(N)c3)n2)c1` [Compound 31], the “Activity (ear thickness inhibition) Second Challenge” value in experiment [1] is listed as “↓ (n.s.)”. Besides, the IC50 at Fc portion of human IgG is 38 nM. With `COc1ccc(Nc2nc(NCC3CC3)nc(Nc3cccc(N)c3)n2)cc1` [Compound 25], the IC50 on Fc portion of human IgG was 75 nM.

On to `Nc1ccc(CCNc2nc(NCCCCCCO)nc(Nc3cccc(N)c3)n2)cc1` [Compound 1], for which, in experiment [1], the “inhibition of the inflammation after the second challenge of oxazolone” value was “significant inhibition of the inflammation” and the “Activity (ear thickness inhibition) First Challenge” value is on record as “No effect”. For the same molecule, in experiment [2], the “oral activity on DTH” value was “oral activity”, the “Activity (ear thickness inhibition) First Challenge” value is recorded as “↓ per os (p = 0.003)” and the “Activity (ear thickness inhibition) Second Challenge” value was “↓ (n.s.)*”. At Fc portion of human IgG, this molecule had an IC50 of 93 nM. For the molecule `Nc1ccc(CCNc2nc(Nc3cccc(N)c3)nc(NC3CCCC3)n2)cc1` [Compound 9], the “Activity (ear thickness inhibition) Second Challenge” value in experiment [1] is “No effect”. Further, at Fc portion of human IgG, the IC50 is 131 nM. As for `COc1ccc(Nc2nc(NCCO)nc(Nc3cccc(N)c3)n2)cc1` [Compound 23], on Fc portion of human IgG, the IC50 came out at 86 nM. Still for that read-out and setting: the value for “Protein A (Control): Staphylococcal protein A, cell-surface bacterial protein which binds the Fc (tail) portion of most antibodies [reference compound]” was 187 nM; that for `Nc1cccc(Nc2nc(NCCO)nc(Nc3cccc(F)c3)n2)c1` [Compound 41] was 36 nM. Consider `Nc1ccc(CNc2nc(Nc3cccc(N)c3)nc(Nc3cccc(N)c3)n2)cc1` [Compound 13], for which, at Fc portion of human IgG, the IC50 is 1 nM and the “binding activity, in words” value is “potent binding activity”. At Fc portion of human IgG, `Nc1cccc(Nc2nc(N)nc(Nc3cccc(N)c3)n2)c1` [Compound 33] gave an IC50 of 170 nM. On the same count and under the same terms, the figure for `Nc1cccc(Nc2nc(NCCCCO)nc(Nc3cccc(N)c3)n2)c1` [Compound 39] is 40 nM; for `COc1cccc(Nc2nc(Nc3cccc(N)c3)nc(Nc3cccc(OC)c3)n2)c1` [Compound 45] it is 469 nM. For the molecule `CN(C[C@H](O)[C@@H](O)[C@H](O)[C@H](O)CO)c1nc(Nc2cccc(N)c2)nc(Nc2cccc(N)c2)n1` [Compound 35], the “Activity (ear thickness inhibition) Second Challenge” value in experiment [1] is listed as “No effect”. The molecule also returned an IC50 on Fc portion of human IgG of 37 nM.

For `NCCCCCCNc1nc(NCCc2ccc(N)cc2)nc(Nc2cccc(N)c2)n1` [Compound 4], the IC50 on Fc portion of human IgG worked out at 300 nM. On the same count and under the same terms, the value for `Nc1cccc(Nc2nc(N)nc(NCc3ccccc3N)n2)c1` [Compound 18] was 97 nM; that for `Nc1ccc(CCNc2nc(Nc3cccc(N)c3)nc(NC3CCC3)n2)cc1` [Compound 8] was 53 nM. As to `NCCNc1nc(NCCc2ccc(N)cc2)nc(Nc2cccc(N)c2)n1` [Compound 5], in experiment [2], the “oral activity on DTH” value is given as “oral activity”, the “Activity (ear thickness inhibition) First Challenge” value is “↓ per os (p = 0.008)” and the “Activity (ear thickness inhibition) Second Challenge” value is on record as “↓ (n.s.)”. Moreover, on Fc portion of human IgG, the IC50 was determined as 377 nM.

On to `Nc1cccc(Nc2nc(Nc3cccc(N)c3)nc(NC3CC3)n2)c1` [Compound 32], for which the half-inhibitory concentration (IC50) on Fc portion of human IgG came out at 38 nM. Same read-out and setting: the figure for `Nc1cccc(Nc2nc(NCCO)nc(NCc3ccccc3F)n2)c1` [Compound 43] is 86 nM; for `Nc1cccc(Nc2nc(NCCO)nc(Nc3cccc(N)c3)n2)c1` [Compound 34] it is 42 nM. Take `Nc1cccc(CNc2nc(N)nc(Nc3cccc(N)c3)n2)c1` [Compound 16]: in experiment [1], the “Activity (ear thickness inhibition) First Challenge” value is “No effect” and the “Activity (ear thickness inhibition) Second Challenge” value is on record as “No effect”. The molecule further came in with a half-maximal inhibitory concentration (IC50) at Fc portion of human IgG of 159 nM.
